Data taken from ChEMBL document CHEMBL1201862, “PubChem BioAssay data set” (2004).
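Method: 48-hour compound exposure of cells in 96-well plates, five concentrations, linear interpolation of endpoints. GI50 is the concentration that inhibits growth by half.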 Activity calls are given as the source filed them. No stated cut-off is given here; in the data, active = GI50 up to about 1.1 µM and inactive = higher.

How the values were obtained:
Assay in all cases: NCI anticancer screen, dose series, 48 h
[1] = tested on: 786-0
[2] = tested on: EKVX
[3] = tested on: MDA-MB-231
[4] = tested on: UO-31
[5] = tested on: SNB-75
[6] = tested on: HT-29
[7] = tested on: ACHN
[8] = tested on: CAKI-1
[9] = tested on: RPMI-8226
[10] = tested on: NCI-H460
[11] = tested on: HL-60
[12] = tested on: MDA-N
[13] = tested on: MDA-MB-435
[14] = tested on: UACC-62
[15] = tested on: OVCAR-8
[16] = tested on: PC-3
[17] = tested on: CCRF-CEM
[18] = tested on: HCT-116
[19] = tested on: HOP-62
[20] = tested on: TK-10

Measured: GI50

CN(C)C(n1cc2c(c1)-c1ccc(Cl)cc1C(c1ccccc1F)=NC2)n1cc2c(c1)-c1ccc(Cl)cc1C(c1ccccc1F)=NC2
inactive: [1] > 100 µM | [2] > 100 µM | [3] > 100 µM | [4] 97.3 µM | [5] 24.7 µM | [6] 14.3 µM | [7] 63.2 µM | [8] > 100 µM | [9] > 100 µM | [10] 51.3 µM | [11] 51.3 µM | [12] 18.4 µM | [13] > 100 µM | [14] > 100 µM | [15] > 100 µM | [16] 46.6 µM | [17] > 100 µM | [18] 61.1 µM | [19] > 100 µM

O=S1(=O)NC2CCC3NS(=O)(=O)NC4CCC(N1)N4S(=O)(=O)N23 (stereo unspecified)
inactive: [1] > 100 µM | [2] > 100 µM | [3] > 100 µM | [4] > 100 µM | [5] > 100 µM | [6] > 100 µM | [7] > 100 µM | [8] > 100 µM | [9] > 100 µM | [10] > 100 µM | [11] > 100 µM | [12] > 100 µM | [13] > 100 µM | [14] > 100 µM | [15] > 100 µM | [16] > 100 µM | [18] > 100 µM | [20] > 100 µM | [19] > 100 µM

O=C(O)C(Oc1nc(S)nc(S)n1)(c1ccc(Cl)cc1)c1ccc(Cl)cc1
inactive: [1] > 100 µM | [2] > 100 µM | [3] > 100 µM | [4] > 100 µM | [5] > 100 µM | [6] > 100 µM | [7] > 100 µM | [8] > 100 µM | [9] > 100 µM | [10] > 100 µM | [11] > 100 µM | [12] > 100 µM | [13] > 100 µM | [14] > 100 µM | [15] > 100 µM | [16] > 100 µM | [18] > 100 µM | [20] > 100 µM | [19] > 100 µM

Nc1nc(N)c(C2=CCN(Cc3ccccc3)CC2)c(=O)[nH]1
inactive: [1] > 100 µM | [2] > 100 µM | [3] > 100 µM | [4] > 100 µM | [5] > 100 µM | [6] > 100 µM | [7] > 100 µM | [8] > 100 µM | [9] > 100 µM | [10] > 100 µM | [11] > 100 µM | [12] > 100 µM | [13] > 100 µM | [14] > 100 µM | [15] > 100 µM | [16] > 100 µM | [17] > 100 µM | [18] > 100 µM | [19] > 100 µM
